Experimental data as given in patent US20050119194A1, “Methods of using and compositions comprising thalidomide for treatment, modification and management of fibromyalgia” (priority 2003, published 2005).

System: fibromyalgia patients
Assay: Clinical studies in fibromyalgia patients
Format: in vivo, human
Description: Pressure of approximate 4 kg/cm^2 is applied manually at multiple anatomic points of patients with fibromyalgia to evaluate pain and tenderness. A useful device for quantitating pain sensitivity is a pressure algometer or dolorimeter. […] Clinical studies are performed in fibromyalgia patients that have not responded to conventional physical therapy and have been present for at least one year. In one embodiment, thalidomide is administered in an amount of 100 to 400 mg per day to patients with fibromyalgia for from three months to one year. A baseline evaluation is performed for the effect of the drug treatment on pain intensity, impact of pain on activities of daily living, and consumption of other pain medications.

O=C1CCC(N2C(=O)c3ccccc3C2=O)C(=O)N1 (racemic) [thalidomide, 2-(2,6-dioxo-3-piperidinyl)-1H-isoindole-1,3(2H)-dione]
Tolerability of treatment (300 mg continuous oral daily dose): well-tolerated | Analgesic effect in fibromyalgia (100 to 400 mg per day for three months to one year): analgesic benefit
